Tests used:
Assay in all cases: relative viability (nuclei count vs DMSO), 5 days (fraction); higher = more cells survive
VE-821 + Trametinib = compound: CS(=O)(=O)c1ccc(-c2cnc(N)c(C(=O)Nc3ccccc3)n2)cc1 [VE-821] + CC(=O)Nc1cccc(-n2c(=O)n(C3CC3)c(=O)c3c(Nc4ccc(I)cc4F)n(C)c(=O)c(C)c32)c1 [Trametinib] (partner 0.02 µM)
Procedure, shortened: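 Dosing by pin tool came one day after lung cancer cell lines were seeded in 1536-well plates, using either one drug or a fixed anchor-drug dose plus five library-drug doses (not always all listed) in √10 steps. After 5 days, nuclei were counted on 4× images. Relative viability is treated-well nuclei count divided by vehicle-well nuclei count, and values are medians of duplicate plates.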

VE-821 = compound: CS(=O)(=O)c1ccc(-c2cnc(N)c(C(=O)Nc3ccccc3)n2)cc1 [VE-821]
Procedure, shortened: (§1)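 Viability was defined as treated-well nuclei divided by vehicle-well nuclei, with the median taken over replicate plates. Cells from lung cancer lines sat overnight at 37 °C in 1536-well plates, received five √10-spaced library-drug doses by pinning on vehicle-anchored plates, and grew 5 days without medium change before one-step fixation, permeabilisation and Hoechst staining, 4× imaging and MetaXpress nuclear counts. Only plates with control CV under 25% and at least one doubling were kept.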

Vismodegib = compound: CS(=O)(=O)c1ccc(C(=O)Nc2ccc(Cl)c(-c3ccccn3)c2)c(Cl)c1 [Vismodegib]
Procedure, shortened: as §1

Ruxolitinib = compound: N#CC[C@H](C1CCCC1)n1cc(-c2ncnc3[nH]ccc23)cn1 [Ruxolitinib]
Procedure, shortened: as §1

Cell Line	relative viability (VE-821 + Trametinib; first compound 0.08 µM)	relative viability (VE-821 + Trametinib; first compound 0.253 µM)	relative viability (VE-821 + Trametinib; first compound 0.8 µM)	relative viability (VE-821 + Trametinib; first compound 2.53 µM)	relative viability (VE-821 + Trametinib; first compound 8 µM)	relative viability (VE-821; 0.08 µM)	relative viability (VE-821; 0.253 µM)	relative viability (VE-821; 0.8 µM)	relative viability (VE-821; 2.53 µM)	relative viability (VE-821; 8 µM)	relative viability (Vismodegib; 0.08 µM)	relative viability (Vismodegib; 0.253 µM)	relative viability (Vismodegib; 0.8 µM)	relative viability (Vismodegib; 2.53 µM)	relative viability (Vismodegib; 8 µM)	relative viability (Ruxolitinib; 0.08 µM)	relative viability (Ruxolitinib; 0.253 µM)	relative viability (Ruxolitinib; 0.8 µM)	relative viability (Ruxolitinib; 2.53 µM)	relative viability (Ruxolitinib; 8 µM)
LK-2	1.02	0.775	0.734	0.897	0.818	1.26	0.911	0.993	1.02	0.881	1	0.842	0.861	1.02	0.899	0.928	0.949	1.13	1.02	1.09
NCI-H1650	0.869	0.453	0.668	0.586	0.402	0.934	0.841	0.911	0.802	0.465	0.934	0.813	0.877	0.864	0.941		0.958	1.29	0.812	0.787
NCI-H2023	0.575	0.488	0.349	0.252	0.181	1.1	0.874	0.672	0.494	0.172	0.925	0.892	0.95	1.06	0.98	1.03	0.835	1.18	0.9	0.988
SK-LU-1	0.495	0.53	0.387	0.547	0.291	1.08	1.06	0.942	0.841	0.569	1	0.997	1.07	0.943	1.04	1.01	1.08	1.12	0.966	0.907
NCI-H2347	0.298	0.276	0.289	0.292	0.324	1.1	0.968	1.01	1.22	1.14	0.908	0.995	0.949	0.968	1.04	0.949	0.984	1.11	1.01	0.942
NCI-H727	0.398	0.432	0.416	0.422	0.396	0.894	0.884	0.958	0.911	0.446	0.891	0.931	0.804	0.988	0.81	0.934	1.02	1.11	0.904	1.36
COR-L23	0.658	0.658	0.587	0.759	0.535	1.12	0.953	1.15	1.11	0.866	0.981	0.933	1.03	1.02	1.05	1.07	0.995	1.09	0.981	0.785
NCI-H2126	0.54	0.54	0.549	0.495	0.533	1.02	0.924	0.966	0.96	0.729	0.994	0.962	0.949	0.968	0.927	1	1.02	1.09	1.12	0.986
NCI-H1703						1.09	0.793	0.836	0.689	0.444	0.998	0.826	1.21	0.824	1.33	0.994	0.862	0.978	0.498	0.663
H3255	0.666	0.646	0.619	0.88	0.63	0.987	0.961	0.92	1.06	0.944	0.921	0.921	0.951	0.936	0.962	0.73	0.938	1.09	0.969	0.811
NCI-H1915	0.331	0.288	0.281	0.349	0.303	1.07	0.949	1.02	1.05	0.755	1.02	1.01	0.957	0.983	0.907	0.983	1.03	1.07	0.901	0.85
ABC-1						1.09	0.882	0.907	1.03	0.749	0.963	0.854	0.96	0.81	0.988		1.01	1.11	0.882	0.782
A549						1.11	0.939	0.927	0.954	0.738	0.964	0.91	0.936	0.915	0.971	0.934	0.965	1.11	0.941	0.736
NCI-H1563						1.01	0.985	0.81	0.886	0.762	0.944	0.931	0.954	1.04	1.02	0.985	0.99	1.02	0.853	0.879
NCI-H1623						1.06	0.987	0.84	1.01	0.809	0.943	1.01	1.06	0.978	1.01	0.942	0.936	1.14	1.14	1.28
IA-LM						1.02	0.874	0.999	1.06	0.808	0.883	0.963	0.964	0.85	0.876	0.855	1.02	1.08	1.05	0.888
EBC-1						1.07	0.894	0.865	1.05	0.759	0.931	0.965	1.12	0.963	1.06	0.981	1.04	1.1	0.924	0.822
Calu-6						1.13	0.97	0.905	0.937	0.607	1.03	0.957	1.03	1.01	1.05	1.03	1.03	1.12	0.893	0.67
